Measurements published in the supplement of paper PMC11451515.

Legend:
Settings in all cases: 48 h
[1] = test system: SEM cells; assay: AUC of viability dose-response curve (% viability x log10 dose units); higher = less sensitive
Summary of the method: (§1)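 Library compounds in DMSO were applied for 48 h at 37°C at 11 threefold doses (47 μM to 0.79 nM) to medium-adapted leukemia cells in 1536-well plates holding 500 or 1000 cells/well. Luminescence from CellTiter-Glo One was normalised plate by plate against DMSO and cell-free wells. Area under the curve came from trapezoidal integration of a log-logistic fit, after scaling curves that rose above full viability and discarding those that failed quality control. The fit had four parameters and used log10 doses.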

[2] = test system: NOMO1; assay: as above
Summary of the method: as §1

[3] = test system: P12-Ichikawa; assay: as above
Summary of the method: as §1

[4] = test system: SEM cells; assay: cell viability relative to DMSO control; higher = less cytotoxic
Summary of the method: (§2)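 Viability values are per-plate percentages of DMSO wells, with background from cell-free wells. Library compounds in DMSO were pin-dosed, in an 11-point threefold series from 47 μM to 0.79 nM, onto NOMO1 or SEM (500 cells/well) or P12-Ichikawa (1000 cells/well) leukemia cells in 1536-well plates (5 μl). Those cells had been adapted for at least four passages in each medium, and CellTiter-Glo One luminescence was read after 48 h at 37°C.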

[5] = test system: NOMO1; assay: as above
Summary of the method: as §2

[6] = test system: P12-Ichikawa; assay: as above
Summary of the method: as §2

O=C(NC1CCOCC1)c1ccc(-c2cc(-c3c[nH]nc3-c3ccccn3)ccn2)cc1
AUC of viability dose-response curve
Settings	[1]	[2]	[3]
HPLM + 10% dialyzed FBS	464	458	463
RPMI 5 mM glucose + 10% FBS	474	465	448
RPMI 5 mM glucose + 10% dialyzed FBS	453	466	435

cell viability [%]
Settings	[4]	[5]	[6]
HPLM + 10% dialyzed FBS, 0.000781 µM	106	125	104
HPLM + 10% dialyzed FBS, 0.00234 µM	108	99.7	103
HPLM + 10% dialyzed FBS, 0.00702 µM	108	110	110
HPLM + 10% dialyzed FBS, 0.0211 µM	115	93.6	104
HPLM + 10% dialyzed FBS, 0.0632 µM	117	120	111
HPLM + 10% dialyzed FBS, 0.19 µM	120	107	108
HPLM + 10% dialyzed FBS, 0.569 µM	114	114	109
HPLM + 10% dialyzed FBS, 1.71 µM	112	101	96.6
HPLM + 10% dialyzed FBS, 5.12 µM	105	87.5	98.3
HPLM + 10% dialyzed FBS, 15.4 µM	120	110	92.4
HPLM + 10% dialyzed FBS, 46.1 µM	114	108	104
RPMI 5 mM glucose + 10% FBS, 0.000781 µM	124	99.4	104
RPMI 5 mM glucose + 10% FBS, 0.00234 µM	116	97.6	109
RPMI 5 mM glucose + 10% FBS, 0.00702 µM	124	102	110
RPMI 5 mM glucose + 10% FBS, 0.0211 µM	121	98.8	109
RPMI 5 mM glucose + 10% FBS, 0.0632 µM	118	99.7	109
RPMI 5 mM glucose + 10% FBS, 0.19 µM	132	104	94.1
RPMI 5 mM glucose + 10% FBS, 0.569 µM	104	93.2	98.4
RPMI 5 mM glucose + 10% FBS, 1.71 µM	120	87.3	85.7
RPMI 5 mM glucose + 10% FBS, 5.12 µM	118	93.1	99.9
RPMI 5 mM glucose + 10% FBS, 15.4 µM	122	104	97.8
RPMI 5 mM glucose + 10% FBS, 46.1 µM	122	93.8	99.9
RPMI 5 mM glucose + 10% dialyzed FBS, 0.000781 µM	98.7	106	114
RPMI 5 mM glucose + 10% dialyzed FBS, 0.00234 µM	108	94.9	109
RPMI 5 mM glucose + 10% dialyzed FBS, 0.00702 µM	110	99.6	103
RPMI 5 mM glucose + 10% dialyzed FBS, 0.0211 µM	111	91.1	105
RPMI 5 mM glucose + 10% dialyzed FBS, 0.0632 µM	104	104	103
RPMI 5 mM glucose + 10% dialyzed FBS, 0.19 µM	105	92.4	102
RPMI 5 mM glucose + 10% dialyzed FBS, 0.569 µM	106	95.3	96
RPMI 5 mM glucose + 10% dialyzed FBS, 1.71 µM	104	104	105
RPMI 5 mM glucose + 10% dialyzed FBS, 5.12 µM	113	96.7	88.4
RPMI 5 mM glucose + 10% dialyzed FBS, 15.4 µM	110	97.8	97.5
RPMI 5 mM glucose + 10% dialyzed FBS, 46.1 µM	123	93	89.8

CCC1=C[C@@H]2CN(C1)Cc1c([nH]c3ccccc13)[C@@](C(=O)OC)(c1cc3c(cc1OC)N(C)[C@H]1[C@@](O)(C(=O)OC)[C@H](OC(C)=O)[C@]4(CC)C=CCN5CC[C@]31[C@@H]54)C2
AUC of viability dose-response curve
Settings	[1]	[2]	[3]
HPLM + 10% dialyzed FBS	244	256	202
RPMI 5 mM glucose + 10% FBS	187	259	182
RPMI 5 mM glucose + 10% dialyzed FBS	241	260	238

cell viability [%]
Settings	[4]	[5]	[6]
HPLM + 10% dialyzed FBS, 0.000781 µM	119	127	106
HPLM + 10% dialyzed FBS, 0.00234 µM	117	119	110
HPLM + 10% dialyzed FBS, 0.00702 µM	110	108	94.4
HPLM + 10% dialyzed FBS, 0.0211 µM	92.7	96.9	85.4
HPLM + 10% dialyzed FBS, 0.0632 µM	75.9	49.3	36.2
HPLM + 10% dialyzed FBS, 0.19 µM	32	34.5	15.4
HPLM + 10% dialyzed FBS, 0.569 µM	25.5	38	15.9
HPLM + 10% dialyzed FBS, 1.71 µM	24.1	34.5	12.6
HPLM + 10% dialyzed FBS, 5.12 µM	23.6	38.4	12.8
HPLM + 10% dialyzed FBS, 15.4 µM	26.7	47	8.96
HPLM + 10% dialyzed FBS, 46.1 µM	17.3	27.4	7.62
RPMI 5 mM glucose + 10% FBS, 0.000781 µM	–	106	108
RPMI 5 mM glucose + 10% FBS, 0.00234 µM	–	98.3	108
RPMI 5 mM glucose + 10% FBS, 0.00702 µM	–	98.9	96.6
RPMI 5 mM glucose + 10% FBS, 0.0211 µM	–	99.3	59.8
RPMI 5 mM glucose + 10% FBS, 0.0632 µM	–	70.5	29.6
RPMI 5 mM glucose + 10% FBS, 0.19 µM	–	20.6	16.2
RPMI 5 mM glucose + 10% FBS, 0.569 µM	–	21.1	18.3
RPMI 5 mM glucose + 10% FBS, 1.71 µM	–	23.4	16.5
RPMI 5 mM glucose + 10% FBS, 5.12 µM	–	22.4	11
RPMI 5 mM glucose + 10% FBS, 15.4 µM	–	29.2	9.49
RPMI 5 mM glucose + 10% FBS, 46.1 µM	–	18.9	7.18
RPMI 5 mM glucose + 10% dialyzed FBS, 0.000781 µM	108	120	110
RPMI 5 mM glucose + 10% dialyzed FBS, 0.00234 µM	106	114	100
RPMI 5 mM glucose + 10% dialyzed FBS, 0.00702 µM	99.7	114	99.7
RPMI 5 mM glucose + 10% dialyzed FBS, 0.0211 µM	86.5	107	89.4
RPMI 5 mM glucose + 10% dialyzed FBS, 0.0632 µM	62.9	86.5	59.2
RPMI 5 mM glucose + 10% dialyzed FBS, 0.19 µM	30	18.8	21.7
RPMI 5 mM glucose + 10% dialyzed FBS, 0.569 µM	23.9	25.7	29.3
RPMI 5 mM glucose + 10% dialyzed FBS, 1.71 µM	22	26.5	25.4
RPMI 5 mM glucose + 10% dialyzed FBS, 5.12 µM	24.9	29	22.4
RPMI 5 mM glucose + 10% dialyzed FBS, 15.4 µM	26.3	27.8	13.9
RPMI 5 mM glucose + 10% dialyzed FBS, 46.1 µM	12.4	20.5	10.6

NC1CCC(N[C@@H]2C[C@H]2c2ccccc2)CC1 (stereo partly drawn)
AUC of viability dose-response curve
Settings	[1]	[2]	[3]
HPLM + 10% dialyzed FBS	409	450	463
RPMI 5 mM glucose + 10% FBS	444	456	461
RPMI 5 mM glucose + 10% dialyzed FBS	441	450	467

cell viability [%]
Settings	[4]	[5]	[6]
HPLM + 10% dialyzed FBS, 0.000781 µM	75.5	78.6	87.9
HPLM + 10% dialyzed FBS, 0.00234 µM	90	92.8	92.4
HPLM + 10% dialyzed FBS, 0.00702 µM	87.5	94.8	94.6
HPLM + 10% dialyzed FBS, 0.0211 µM	87.5	93.3	94.5
HPLM + 10% dialyzed FBS, 0.0632 µM	92.9	94.2	102
HPLM + 10% dialyzed FBS, 0.19 µM	92.8	108	102
HPLM + 10% dialyzed FBS, 0.569 µM	93.7	117	105
HPLM + 10% dialyzed FBS, 1.71 µM	76.4	108	99.5
HPLM + 10% dialyzed FBS, 5.12 µM	83.2	107	106
HPLM + 10% dialyzed FBS, 15.4 µM	82.3	111	94.7
HPLM + 10% dialyzed FBS, 46.1 µM	81.5	92	98.5
RPMI 5 mM glucose + 10% FBS, 0.000781 µM	120	95.3	92
RPMI 5 mM glucose + 10% FBS, 0.00234 µM	126	88.9	94.6
RPMI 5 mM glucose + 10% FBS, 0.00702 µM	114	101	106
RPMI 5 mM glucose + 10% FBS, 0.0211 µM	115	104	102
RPMI 5 mM glucose + 10% FBS, 0.0632 µM	119	101	102
RPMI 5 mM glucose + 10% FBS, 0.19 µM	124	89.4	100
RPMI 5 mM glucose + 10% FBS, 0.569 µM	146	94.4	95
RPMI 5 mM glucose + 10% FBS, 1.71 µM	106	89.8	76.6
RPMI 5 mM glucose + 10% FBS, 5.12 µM	111	94.3	100
RPMI 5 mM glucose + 10% FBS, 15.4 µM	105	100	102
RPMI 5 mM glucose + 10% FBS, 46.1 µM	98.9	93.3	91.2
RPMI 5 mM glucose + 10% dialyzed FBS, 0.000781 µM	84.2	95.5	92.2
RPMI 5 mM glucose + 10% dialyzed FBS, 0.00234 µM	98.5	97	98.1
RPMI 5 mM glucose + 10% dialyzed FBS, 0.00702 µM	99.8	96	105
RPMI 5 mM glucose + 10% dialyzed FBS, 0.0211 µM	96.7	96.8	99
RPMI 5 mM glucose + 10% dialyzed FBS, 0.0632 µM	98	100	96.5
RPMI 5 mM glucose + 10% dialyzed FBS, 0.19 µM	96.3	96.7	109
RPMI 5 mM glucose + 10% dialyzed FBS, 0.569 µM	106	85.5	103
RPMI 5 mM glucose + 10% dialyzed FBS, 1.71 µM	81.9	93.8	97.8
RPMI 5 mM glucose + 10% dialyzed FBS, 5.12 µM	92.4	99.7	98.2
RPMI 5 mM glucose + 10% dialyzed FBS, 15.4 µM	81.4	88	88.9
RPMI 5 mM glucose + 10% dialyzed FBS, 46.1 µM	74	84	84
